Data: ChEMBL document CHEMBL3853285, “Naturally Occurring Carbazole Alkaloids from Murraya koenigii as Potential Antidiabetic Agents” (J Nat Prod, 2016)
Activity calls are given as the source filed them. The calls are words filed in the database; no cut-off is given here.

How the values were obtained:
[1] = Activation of Akt-dependent signalling pathway in rat L6 myotubes assessed as increase in insulin-stimulated myc-tagged GLUT4-mediated 2-[3H]-deoxyglucose uptake at 25 uM incubated for 16 hrs followed by insulin stimulation for 20 mins measured for 5 mins by beta scintillation counting method relative to control
[2] = Activation of Akt-dependent signalling pathway in rat L6 myotubes assessed as increase in myc-tagged GLUT4-mediated 2-[3H]-deoxyglucose uptake at 25 uM incubated for 16 hrs measured for 5 mins by beta scintillation counting relative to control
[3] = Activation of Akt-dependent signalling pathway in rat L6 myotubes assessed as induction of myc-tagged GLUT4 translocation to cell surface at 25 uM incubated for 16 hrs by O-phenylenediamide based colorimetric assay relative to control
[4] = Metabolic stability in rat liver microsomes assessed as parent compound remaining after 90 mins in presence of NADPH by HPLC analysis; format: ADME; conditions: for remaining at 1.5 h: liver microsomes, read-out: Stability
[5] = Metabolic stability in rat liver microsomes assessed as drug degradation rate constant incubated for 90 mins by HPLC analysis; format: ADME; conditions: 1.5 h
Rattus norvegicus [6] = assay: Antidiabetic activity in overnight fasted STZ-induced albino Sprague-Dawley rat diabetic model assessed as decrease in blood glucose level at 100 mg/kg, po measured up to 5 hrs; format: functional
Rattus norvegicus [7] = assay: Antidiabetic activity in overnight fasted STZ-induced albino Sprague-Dawley rat diabetic model assessed as decrease in blood glucose level at 100 mg/kg, po measured up to 24 hrs; format: functional
[8] = Half life in rat liver microsomes in presence of NADPH by HPLC analysis; format: ADME; conditions: for half-life: liver microsomes
[9] = Activation of Akt-dependent signalling pathway in rat L6 myotubes assessed as increase in myc-tagged GLUT4-mediated 2-[3H]-deoxyglucose uptake incubated for 16 hrs measured for 5 mins by beta scintillation counting
Mus musculus [10] = assay: Antidiabetic activity in leptin receptor deficient db/db C57BL/KSJ mouse assessed as decrease in fasting blood glucose level administered for 15 consecutive days relative to control; format: functional
Mus musculus [11] = assay: Reversal of insulin resistance in leptin receptor deficient db/db C57BL/KSJ mouse assessed as decrease in serum insulin level administered for 15 consecutive days relative to control; format: functional
Mus musculus [12] = assay: Reversal of insulin resistance in leptin receptor deficient db/db C57BL/KSJ mouse assessed as improvement in HOMA index administered for 15 consecutive days relative to control; format: functional
Mus musculus [13] = assay: Antidiabetic activity in leptin receptor deficient db/db C57BL/KSJ mouse assessed as decrease in postprandial blood glucose level at 10 mg/kg, po for 15 consecutive days measured on day 7 to 14 post dose; format: functional, organism-based
Mus musculus [14] = assay: Antidiabetic activity in overnight fasted leptin receptor deficient db/db C57BL/KSJ mouse assessed as reduction in postprandial blood glucose AUC at 10 mg/kg, po administered on day 10 post glucose challenge measured up to 120 mins by oral glucose tolerance test relative to control; format: functional
Mus musculus [15] = assay: Antidiabetic activity in overnight fasted leptin receptor deficient db/db C57BL/KSJ mouse assessed as reduction in postprandial blood glucose AUC at 10 mg/kg, po administered on day 15 post glucose challenge measured up to 120 mins by oral glucose tolerance test relative to control; format: functional
Mus musculus [16] = assay: Antidiabetic activity in overnight fasted leptin receptor deficient db/db C57BL/KSJ mouse assessed as reduction in postprandial blood glucose AUC at 30 mg/kg, po administered on day 15 post glucose challenge measured up to 120 mins by oral glucose tolerance test relative to control; format: functional
Mus musculus [17] = assay: Antidiabetic activity in leptin receptor deficient db/db C57BL/KSJ mouse assessed as decrease in postprandial blood glucose level at 30 mg/kg, po for 15 consecutive days measured on day 8 post dose; format: functional, organism-based
Mus musculus [18] = assay: Antidiabetic activity in overnight fasted leptin receptor deficient db/db C57BL/KSJ mouse assessed as reduction in postprandial blood glucose AUC at 30 mg/kg, po administered on day 10 post glucose challenge measured up to 120 mins by oral glucose tolerance test relative to control; format: functional
[19] = Cmax in Sprague-Dawley rat plasma at 100 mg/kg, po administered as single dose measured up to 48 hrs post dose by LC-MS/MS analysis; format: ADME, organism-based; design: dose 100 mg/kg, route oral
[20] = AUC (0 to infinity) in Sprague-Dawley rat plasma at 100 mg/kg, po administered as single dose measured up to 48 hrs post dose by LC-MS/MS analysis; format: ADME, organism-based; design: dose 100 mg/kg, route oral, time infinity
[21] = Tmax in Sprague-Dawley rat plasma at 100 mg/kg, po administered as single dose by LC-MS/MS analysis; format: ADME, organism-based
Rattus norvegicus [22] = organism: Rattus norvegicus; assay: Induction of Akt phosphorylation at Ser-473 residue in rat L6 myotubes over-expressing myc-tagged GLUT4 at 25 uM incubated for 16 hrs by Western blot analysis
Rattus norvegicus [23] = organism: Rattus norvegicus; assay: Induction of Akt phosphorylation at Ser-473 residue in rat L6 myotubes over-expressing myc-tagged GLUT4 at 50 uM incubated for 16 hrs followed by insulin stimulation for 20 mins by Western blot analysis
[24] = Activation of Akt-dependent signalling pathway in rat L6 myotubes assessed as induction of myc-tagged GLUT4 translocation to cell surface at 10 uM incubated for 16 hrs by O-phenylenediamide based colorimetric assay relative to control
[25] = Activation of Akt-dependent signaling pathway in rat L6 myotubes assessed as increase in myc-tagged GLUT4-mediated 2-[3H]-deoxyglucose uptake at 10 uM incubated for 16 hrs measured for 5 mins by beta scintillation counting method relative to control

SMILES	fold change (FC) [1]	fold change (FC) [2]	fold change (FC) [3]	remaining at 1.5 h [4]	K [5]	half-life [8]	Activity [9]	inhibition in vivo at 100 mg/kg (Rattus norvegicus [6])	inhibition in vivo at 100 mg/kg (Rattus norvegicus [7])	further results
CCc1ccc(CCOc2ccc(CC3SC(=O)NC3=O)cc2)nc1 (configuration not stated) [PIOGLITAZONE]	–	–	–	–	–	–	–	–	–	inhibition (INH) (Mus musculus [10]): 62.4%; inhibition (INH) (Mus musculus [11]): 32.3%; Activity (Mus musculus [12]): 74.6%; inhibition (Mus musculus [13]): Active; inhibition in vivo at 10 mg/kg (Mus musculus [14]): 30.2%; inhibition in vivo at 10 mg/kg (Mus musculus [15]): 41.4%
CN(CCOc1ccc(CC2SC(=O)NC2=O)cc1)c1ccccn1 (configuration not stated)	2.75	–	–	–	–	–	Dose-dependent effect	–	–	fold change (FC) [24]: 1.38; fold change (FC) [25]: 1.45
CN(C)C(=N)NC(=N)N [METFORMIN]	–	–	–	–	–	–	–	25.9%	36%	–

Further lines, with some results ahead:

fold change (FC) [1]	fold change (FC) [2]	fold change (FC) [3]	remaining at 1.5 h [4]	K [5]	half-life [8]	Activity [9]	SMILES	inhibition in vivo at 100 mg/kg (Rattus norvegicus [6])	inhibition in vivo at 100 mg/kg (Rattus norvegicus [7])	further results
2.7	1.34	1.33	67%	0.004 min⁻¹	2.83 h	Dose-dependent effect	COc1ccc2c(c1)[nH]c1c3c(c(C)cc12)OC(C)(C)C=C3	24.6%	30.3%	–
2.41	1.42	1.29	79%	0.003 min⁻¹	3.11 h	Dose-dependent effect	COc1cc2[nH]c3c4c(c(C)cc3c2cc1OC)OC(C)(C)C=C4	22.5%	30%	inhibition in vivo at 30 mg/kg (Mus musculus [16]): 28.5%; inhibition (INH) (Mus musculus [10]): 40.5%; inhibition (Mus musculus [17]): Active; inhibition (INH) (Mus musculus [11]): 17.2%; inhibition in vivo at 30 mg/kg (Mus musculus [18]): 21.8%; Activity (Mus musculus [12]): 44.3%; Cmax [19]: 2820 nM; AUC(0-inf) [20]: 23 µM·h; Tmax [21]: 4 h; Activity (Rattus norvegicus [22]): Active; Activity (Rattus norvegicus [23]): Active
2.54	1.41	1.44	58%	0.005 min⁻¹	2.21 h	Dose-dependent effect	COc1ccc2[nH]c3c4c(c(C)cc3c2c1)OC(C)(C)C=C4 [KOENIMBINE]	15.5%	19.8%	Cmax [19]: 1810 nM; AUC(0-inf) [20]: 9.45 µM·h; Tmax [21]: 0.83 h
2.68	1.26	1.41	–	0.088 min⁻¹	–	Dose-dependent effect	CC(C)=CCC[C@]1(C)C=Cc2c(c(C)cc3c2[nH]c2ccccc23)O1	19.3%	23.3%	Stability ([4]; microsomes, 1.5 h): 61%; t1/2 ([8]; microsomes): 7.8 min
